Experimental data published in ChEMBL document CHEMBL1135604, “Geometry-affinity relationships of the selective serotonin receptor ligand 9-(aminomethyl)-9,10-dihydroanthracene” (J Med Chem, 2002).

Target: 5-hydroxytryptamine receptor 2A (Rattus norvegicus) (UniProt P14842)
Experiment: Binding affinity was performed using [3H]ketanserin as the radioligand and stably transfected NIH3T3 cells expressing the 5-hydroxytryptamine 2A receptor (GF-62 cells).

Sequence of 5-hydroxytryptamine receptor 2A (Rattus norvegicus) (P14842 whole entry, looked up): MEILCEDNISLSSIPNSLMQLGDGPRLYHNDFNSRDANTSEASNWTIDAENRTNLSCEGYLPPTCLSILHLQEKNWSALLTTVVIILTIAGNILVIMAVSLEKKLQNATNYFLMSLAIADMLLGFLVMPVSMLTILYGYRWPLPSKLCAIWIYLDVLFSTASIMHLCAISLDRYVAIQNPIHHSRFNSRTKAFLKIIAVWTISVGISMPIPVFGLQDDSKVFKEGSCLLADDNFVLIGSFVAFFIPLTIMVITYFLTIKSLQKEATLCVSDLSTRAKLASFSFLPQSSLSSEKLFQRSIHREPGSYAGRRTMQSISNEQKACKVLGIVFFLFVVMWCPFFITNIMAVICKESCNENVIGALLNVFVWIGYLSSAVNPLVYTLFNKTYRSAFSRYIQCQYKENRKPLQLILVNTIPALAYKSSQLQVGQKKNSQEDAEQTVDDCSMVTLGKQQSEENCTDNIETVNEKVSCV

| Structure (SMILES) | Ki [nM] |
| --- | --- |
| NCC12CC(c3ccccc31)c1ccccc12 | 6780 |
| NCCc1ccccc1Cc1ccccc1 | 1810 |
| CC1(C)c2ccccc2C(CN)c2ccccc21 | 330 |
| NCC1CC2c3ccccc3C1c1ccccc12 (centres undefined) | 9530 |
| NC1CC2c3ccccc3C1c1ccccc12 (centres undefined) | > 10000 |
| NCC1c2ccccc2CCc2ccccc21 | 112 |
| c1ccc2c(c1)Cc1cccc3c1C2CNC3 (centres undefined) | 296 |
| CC(N)C1c2ccccc2Cc2ccccc21 (centres undefined) | 193 |
| c1ccc2c(c1)C1c3ccccc3C2C2NC12 (centres undefined) | > 10000 |
| NCc1c2ccccc2cc2ccccc12 | 2300 |
| CC1(CN)c2ccccc2Cc2ccccc21 | 65 |
| NCC1Cc2ccccc2-c2ccccc21 (centres undefined) | 711 |
| NCC12CCC(c3ccccc31)c1ccccc12 | 770 |
| NCC1CCCc2ccccc21 (centres undefined) | > 10000 |
